From US6492416B1, “4,5-diaryl-3(2H)-furanone derivatives as cyclooxygenase-2 inhibitors” (Pacific Corporation, priority 1999, dated 2002)
In brackets after ≈: the same amount, converted by molar mass.

Key:
[1] = test system: male Sprague-Dawley (SD) rats; test: Carrageenan-induced foot edema in rats (CFE); assay type: in vivo; details: oral dose 3 mg/kg body weight, rat, paw volume 3 hours after Carrageenan
Protocol: An appropriate amount of a compound of this invention suspended in 1% methylcellulose (MC) solution was administered to male Sprague-Dawley (SD) rats weighing 150˜200 g by oral gavage. The volume of the administered vehicle for a compound of this invention was controlled to be smaller than 10 ml/kg body weight of the animal. One hour later, 0.1 ml of 1% Carrageenan saline solution was directly injected into the right paw of the rats to induce edema in the paw. The paw volumes at 0 hour and at 3 hours after the injection of Carrageenan were measured by using a displacement plethysmometer (Ugo Basile, Italy). The paw volumes were used to calculate % inhibition of CFE by an amount of a compound of this invention according to the following equation.
% Inhibition of CFE=(1−Δtreated/Δcontrol)×100
wherein Δtreated=[paw volume at three hours after the Carrageenan injection−paw volume right after Carrageenan injection] for a drug-administered rat, and Δcontrol=[paw volume at three hours after the Carrageenan injection−paw volume right after Carrageenan injection] for a rat without drug administration.
In order to determine the inhibitory activity of a compound of this invention at a dose, usually 5 to 8 animals were used both for drug-treated group and for control group.

COX-1 = molecular target: T1, COX-1 (Mus musculus, UniProt P22437); test: Evaluation of COX-1 activity: PGE2 formation in mouse peritoneal macrophages without aspirin and LPS treatment; assay type: cell-based
T1 sequence (P22437 27-602): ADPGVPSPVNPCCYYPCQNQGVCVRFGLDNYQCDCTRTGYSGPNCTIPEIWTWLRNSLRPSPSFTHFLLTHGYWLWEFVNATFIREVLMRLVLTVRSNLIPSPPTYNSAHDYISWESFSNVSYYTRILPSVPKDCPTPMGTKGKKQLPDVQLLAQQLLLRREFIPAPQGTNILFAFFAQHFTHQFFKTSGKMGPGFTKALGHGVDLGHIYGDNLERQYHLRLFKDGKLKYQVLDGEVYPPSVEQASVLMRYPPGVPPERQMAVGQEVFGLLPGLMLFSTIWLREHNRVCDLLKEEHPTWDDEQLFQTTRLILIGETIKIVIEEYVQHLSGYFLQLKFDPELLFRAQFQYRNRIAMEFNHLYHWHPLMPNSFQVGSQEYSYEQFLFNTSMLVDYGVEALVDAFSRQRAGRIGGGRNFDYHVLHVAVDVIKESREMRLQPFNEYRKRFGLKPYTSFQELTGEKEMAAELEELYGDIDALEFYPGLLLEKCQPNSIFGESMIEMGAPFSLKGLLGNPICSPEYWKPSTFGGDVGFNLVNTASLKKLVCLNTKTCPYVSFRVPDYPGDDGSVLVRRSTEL
Procedure, shortened: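 Peritoneal macrophages from C57BL/6 mice, without aspirin or LPS treatment, were plated at 1×10^6 cells/ml and fixed 2 h at 37 °C. Cells were preincubated 10 min, then given 10 μM arachidonic acid plus compound for 10 min; PGE2 was measured by RIA or EIA. IC50 came from 4–5 concentrations.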

COX-2 = molecular target: T2, COX-2 (Mus musculus, UniProt Q05769); test: Evaluation of COX-2 activity: PGE2 formation in aspirin-treated, LPS-stimulated mouse peritoneal macrophages; assay type: cell-based
T2 sequence (Q05769 18-604): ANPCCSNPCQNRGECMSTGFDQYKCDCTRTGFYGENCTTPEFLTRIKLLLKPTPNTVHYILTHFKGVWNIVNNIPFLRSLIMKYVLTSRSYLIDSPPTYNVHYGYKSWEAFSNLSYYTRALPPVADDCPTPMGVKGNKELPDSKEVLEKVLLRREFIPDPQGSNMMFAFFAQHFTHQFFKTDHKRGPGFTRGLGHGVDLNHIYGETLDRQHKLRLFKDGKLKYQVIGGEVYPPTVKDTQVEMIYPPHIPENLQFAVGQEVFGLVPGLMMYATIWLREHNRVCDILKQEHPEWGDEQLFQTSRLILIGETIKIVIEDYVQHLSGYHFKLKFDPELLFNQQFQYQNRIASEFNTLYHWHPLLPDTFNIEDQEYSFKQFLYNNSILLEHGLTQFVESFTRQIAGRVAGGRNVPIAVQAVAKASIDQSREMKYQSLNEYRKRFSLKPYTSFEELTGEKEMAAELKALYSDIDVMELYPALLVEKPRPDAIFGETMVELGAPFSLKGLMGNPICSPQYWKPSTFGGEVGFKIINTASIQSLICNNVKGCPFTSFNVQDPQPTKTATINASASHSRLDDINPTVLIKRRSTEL
Procedure, shortened: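 PGE2 output, quantified by radio- or enzyme-immunoassay, was read after 10 min exposure of cells to compound with 10 μM arachidonic acid. Cells were mouse peritoneal macrophages, COX-1 knocked out with 500 μM aspirin and COX-2 induced by 10 μg/ml LPS over 16 h. IC50 derived from 4–5 concentrations.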

Molecule | % Inhibition (CFE) [1] | IC50, μg/ml COX-1 (COX-1) | melting point | IC50, μg/ml COX-2 (COX-2) | IC50 (COX-1; read-out: IC50, μg/ml COX-1 (converted)) | IC50 (COX-2; read-out: IC50, μg/ml COX-2 (converted))
CC1(C)OC(c2ccc(S(C)(=O)=O)c(Br)c2)=C(c2cccc(F)c2)C1=O [Example 343] | 25% | 50 µg/mL (≈ 114 µM) | 133 to 134 °C | 0.03 µg/mL (≈ 0.0683 µM) | – | –
CC1(C)OC(c2ccc(S(N)(=O)=O)cc2F)=C(c2cccc(F)c2)C1=O [Example 333] | 25% | 10 µg/mL (≈ 26.4 µM) | 168 to 170 °C | 0.003 µg/mL (≈ 0.00791 µM) | – | –
CC1(C)OC(c2ccc(S(N)(=O)=O)cc2)=C(c2cc(F)ccc2F)C1=O [Example 157] | 41% | 5.15 µg/mL (≈ 13.6 µM) | 182 to 183 °C | 0.038 µg/mL (≈ 0.1 µM) | – | –
5-{(aminosulfonyl)-3-fluorophenyl}-4-(3,5-difluorophenyl)-2,2-dimethyl-3(2H)-furanone [Example 312] | 31% | 100 µg/mL | – | 0.02 µg/mL | – | –
CC1(C)OC(c2ccc(S(N)(=O)=O)cc2)=C(c2ccccc2F)C1=O [Example 155] | 35% | 1.8 µg/mL (≈ 4.98 µM) | 188 to 189 °C | 0.016 µg/mL (≈ 0.0443 µM) | – | –
CC1(C)OC(c2ccc(S(C)(=O)=O)c(Cl)c2)=C(c2cccc(F)c2)C1=O [Example 359] | 28% | 200 µg/mL (≈ 507 µM) | 163 to 164 °C | 0.02 µg/mL (≈ 0.0507 µM) | – | –
CC1(C)OC(c2ccc(S(N)(=O)=O)c(F)c2)=C(c2ccc(F)cc2)C1=O [Example 303] | 30% | 3 µg/mL (≈ 7.91 µM) | 190 to 192 °C | 0.03 µg/mL (≈ 0.0791 µM) | – | –
CCC1(C)OC(c2ccc(S(C)(=O)=O)cc2)=C(c2cccc(Cl)c2)C1=O (stereo not drawn) [Example 195] | 28% | – | 94 to 95 °C | – | 12.8 µM | 76.7 nM
CC1(C)OC(c2ccc(S(N)(=O)=O)c(F)c2)=C(c2cccc(F)c2)C1=O [Example 302] | 27% | 5 µg/mL (≈ 13.2 µM) | 178 to 179 °C | 0.03 µg/mL (≈ 0.0791 µM) | – | –
CC1(C)OC(c2ccc(S(C)(=O)=O)c(F)c2)=C(c2cccc(Cl)c2)C1=O [Example 278] | 27% | 30 µg/mL (≈ 76 µM) | 108 to 109 °C | 0.05 µg/mL (≈ 0.127 µM) | – | –
Cn1cc(C2=C(c3ccc(S(C)(=O)=O)cc3)OC(C)(C)C2=O)cn1 [Example 20, 2,2-Dimethyl-4-{4-(1-N-methylpyrazolyl)}-5-{4-(methylsulfonyl)phenyl)-3(2H)-furanone] | 36% | – | 114 to 115 °C | – | – | –
Cn1cc(C2=C(c3ccc(S(N)(=O)=O)cc3)OC(C)(C)C2=O)cn1 [Example 164] | 29% | 100 µg/mL (≈ 288 µM) | – | 0.03 µg/mL (≈ 0.0864 µM) | – | –
CC1(C)OC(c2ccc(S(N)(=O)=O)cc2)=C(c2cccc(C(F)(F)F)c2)C1=O [Example 23, 5-{4-(Aminosulfonyl)phenyl}-2,2-dimethyl-4-{3-(trifluoromethyl)phenyl}-3(2H)-furanone] | 33% | – | – | – | – | –
CC1(C)OC(c2ccc(S(N)(=O)=O)cc2)=C(c2ccc(F)c(F)c2)C1=O [Example 138] | – | 1.94 µg/mL (≈ 5.11 µM) | 210 to 211 °C | 0.0067 µg/mL (≈ 0.0177 µM) | – | –
CSc1ccc(C2=C(c3ccccc3)C(=O)C(C)(C)O2)cc1 [Example 167] | – | 50 µg/mL (≈ 161 µM) | 109 to 110 °C | 3 µg/mL (≈ 9.66 µM) | – | –
C[S+]([O-])c1ccc(C2=C(c3cccc(F)c3)C(=O)C(C)(C)O2)cc1 (stereo not drawn) [Example 176, 2,2-dimethyl-4-(3-fluorophenyl)-5-{4-(methylsulfinyl)phenyl}-3(2H)-furanone] | 23% | – | 143 to 144 °C | 1 µg/mL (≈ 2.9 µM) | – | –
